Laboratory results published in patent US20250120399A1, “METHODS AND COMPOSITIONS FOR ALTERING METABOLITES IN VITIS SPP. AND PREVENTING PESTS AND PATHOGENS” (Impello Biosciences, Inc., priority 2022, published 2025).
Several values for one entry are separate records, joined by “and”; a condition that tells them apart may be missing. Equal entries are not always repeated.

Test system: Grapevine (Malbec variety)
Assay: Leaf sap Brix by refractometer, Malbec field trial (Example 1)
Assay type: in vivo, Vitis vinifera
Design: % BRIX, Plant #1 / % BRIX, Plant #2 / % BRIX, Plant #3: reference not given here
Conditions: for AVG Brix, Plant #1 / AVG Brix, Plant #2 / AVG Brix, Plant #3: average of 25 leaves; for Brix, individual leaves, Plant #1 / Brix, individual leaves, Plant #2 / Brix, individual leaves, Plant #3: leaf sap; for Brix, individual leaves, Plant #1: MDJ treated Plant #1, leaf no. 1-25; for Brix, individual leaves, Plant #2: MDJ treated Plant #2, leaf no. 1-25; for Brix, individual leaves, Plant #3: MDJ treated Plant #3, leaf no. 1-25
Experimental: An eliciting composition and methods of use to alter metabolite production were tested on 6 acres of a Malbec variety planted in 1999 in Napa Valley, California. Plants were spaced 5′×10′ (900 vines per acre) and grouped into randomized blocks of 900 vines per group, with six replicates covering three acres for the treatment group, and six replicates covering three acres for the control group. The treatment group received two applications of 32 oz of MDJ applied at a rate of 100 gallons per acre (2.5 mM), once prior to veraison on Aug. 9, 2021 and again when 5-10% of berries were starting to blush (veraison) using a ground spray rig (backpack sprayer). From within each replicate, three plants were selected at random, and 25 leaves from each plant were randomly selected for analysis. The internal sap of the leaves was tested using a refractometer on the days shown below in Table 4 and FIG. 1. Data from each replicate was averaged (25 leaves from each plant, 3 plants).

[1] = Replicate 1 sampled on Aug. 15, 2021, MDJ treated Plant #2
[2] = Replicate 1 sampled on Aug. 15, 2021, MDJ treated Plant #3
[3] = Replicate 2 sampled on Sep. 22, 2021, MDJ treated Plant #1
[4] = Replicate 2 sampled on Sep. 22, 2021, MDJ treated Plant #2
[5] = Replicate 2 sampled on Sep. 22, 2021, MDJ treated Plant #3
[6] = Replicate 3 sampled on Sep. 30, 2021, MDJ treated Plant #1
[7] = Replicate 3 sampled on Sep. 30, 2021, MDJ treated Plant #2
[8] = Replicate 3 sampled on Sep. 30, 2021, MDJ treated Plant #3
[9] = Replicate 4, Oct. 5, 2021, MDJ treated Plant #1
[10] = Replicate 4, Oct. 5, 2021, MDJ treated Plant #2
[11] = Replicate 4, Oct. 5, 2021, MDJ treated Plant #3
[12] = Replicate 5, Oct. 10, 2021, MDJ treated Plant #1
[13] = Replicate 5, Oct. 10, 2021, MDJ treated Plant #2
[14] = Replicate 5, Oct. 10, 2021, MDJ treated Plant #3
[15] = Replicate 6, Oct. 30, 2021, MDJ treated Plant #1
[16] = Replicate 6, Oct. 30, 2021, MDJ treated Plant #2
[17] = Replicate 6, Oct. 30, 2021, MDJ treated Plant #3
[18] = Replicate 4 sampled on Oct. 5, 2021
[19] = Replicate 5 sampled on Oct. 10, 2021
[20] = Replicate 6 sampled on Oct. 30, 2021

## CCCCCC1C(=O)CCC1CC(=O)OC (stereo not shown) [MDJ, methyl dihydrojasmonate]
[1]
  % BRIX: 78.8%
  AVG Brix of 25 leaves: 19.7
[2]
  % BRIX: 77.9%
  AVG Brix of 25 leaves: 19.5
[3]
  % BRIX: 99.5%
  AVG Brix of 25 leaves: 24.9
[4]
  % BRIX: 101.0%
  AVG Brix of 25 leaves: 25.3
[5]
  % BRIX: 91.8%
  AVG Brix of 25 leaves: 23.0
[6]
  % BRIX: 111.9%
  AVG Brix of 25 leaves: 28.0
[7]
  % BRIX: 117.9%
  AVG Brix of 25 leaves: 29.5
[8]
  % BRIX: 117.9%
  AVG Brix of 25 leaves: 29.5
[9]
  % BRIX, Plant #1: 119.5%
  AVG Brix, Plant #1: 29.9
[10]
  % BRIX, Plant #2: 119.2%
  AVG Brix, Plant #2: 29.8
[11]
  % BRIX, Plant #3: 120.8%
  AVG Brix, Plant #3: 30.2
[12]
  % BRIX, Plant #1: 111.4%
  AVG Brix, Plant #1: 27.9
[13]
  % BRIX, Plant #2: 111.4%
  AVG Brix, Plant #2: 27.8
[14]
  % BRIX, Plant #3: 107.3%
  AVG Brix, Plant #3: 26.8
[15]
  % BRIX, Plant #1: 99.2%
  AVG Brix, Plant #1: 24.8
[16]
  % BRIX, Plant #2: 110.1%
  AVG Brix, Plant #2: 27.5
[17]
  % BRIX, Plant #3: 103.2%
  AVG Brix, Plant #3: 25.8
Replicate 4 sampled on Oct. 5, 2021, two applications of 32 oz MDJ at 100 gal/acre (2.5 mM)
  Brix, individual leaves, Plant #1: 30.6 and 29.8 (2×) and 29.0 and 29.5 (6×) and 32.3 and 28.7 and 28.9 (3×) and 29.7 (2×) and 28.8 and 30.0 and 30.4 and 33.3 and 29.9 (2×) and 31.8 and 29.6
[18]
  Brix, individual leaves, Plant #2: 29.3 (2×) and 28.0 and 26.9 and 28.5 and 29.9 (2×) and 29.8 (3×) and 30.1 and 28.9 (2×) and 29.4 and 28.3 and 33.3 and 33.0 and 32.9 and 32.5 and 28.8 and 30.4 and 29.5 (2×) and 29.6 and 28.7
  Brix, individual leaves, Plant #3: 31.9 and 29.8 (2×) and 29.2 and 29.3 and 29.9 (4×) and 28.5 and 30.4 and 29.5 (2×) and 31.0 and 32.5 and 32.9 and 29.0 and 28.7 and 28.8 and 30.1 and 30.3 and 29.6 and 33.0 and 32.8 and 28.9
[19]
  Brix, individual leaves, Plant #1: 28.7 and 26.1 and 26.2 and 27.2 and 27.7 and 27.6 (2×) and 26.4 (2×) and 28.2 and 28.8 (3×) and 25.8 and 28.5 and 26.0 and 26.9 and 29.5 (2×) and 27.4 and 32.0 and 23.8 and 29.9 and 30.5 and 28.0
  Brix, individual leaves, Plant #2: 28.5 (2×) and 27.5 (2×) and 29.1 and 26.8 and 26.4 and 27.8 and 29.9 and 28.7 (2×) and 29.4 and 28.3 and 29.5 and 28.6 and 25.0 and 27.6 and 25.9 and 29.8 and 28.4 and 28.0 and 26.0 and 26.1 and 27.2 and 27.0
  Brix, individual leaves, Plant #3: 26.8 (3×) and 24.5 and 26.3 (2×) and 25.5 (3×) and 25.3 and 28.5 (4×) and 26.7 and 25.8 and 27.0 and 28.7 and 26.9 and 29.8 and 27.5 (2×) and 26.0 and 26.5 and 24.8
[20]
  Brix, individual leaves, Plant #1: 23.4 and 23.8 (2×) and 24.0 (4×) and 26.0 (2×) and 25.0 (3×) and 25.1 and 26.6 (2×) and 25.6 and 24.5 (2×) and 24.8 (2×) and 24.7 and 23.9 and 22.8 and 25.5 and 26.5
  Brix, individual leaves, Plant #2: 28.7 (2×) and 24.5 and 24.1 and 26.0 (2×) and 28.0 (3×) and 27.1 and 26.4 and 29.1 and 25.5 and 28.5 (2×) and 26.9 and 29.8 (2×) and 29.9 and 27.3 (2×) and 24.9 and 26.6 and 29.5 and 29.0
  Brix, individual leaves, Plant #3: 25.0 (2×) and 23.1 and 22.9 (2×) and 28.1 and 25.8 and 26.9 and 25.5 and 25.6 (2×) and 26.2 and 23.9 (2×) and 28.8 and 26.3 and 27.2 and 27.3 and 26.1 and 24.6 and 25.7 and 29.9 and 28.4 and 25.4 and 24.9
